Measured values published in PMC12150326 (The Journal of Organic Chemistry, 2025).
Read-outs that look alike come from different tables or passages of the source.

What was measured:
[1] = cited from earlier work
bovine brain tubulin = experiment: Tubulin polymerization inhibition; type: biochemical; conditions: 10 μM tubulin; for Polymerization Inhibition (%) 3.3 μM: 3.3 μM compound; for Polymerization Inhibition (%) 33 μM: 33 μM compound
Protocol: Inhibition of tubulin polymerization was determined as described previously. In brief, 10 μM bovine brain tubulin (PurSolutions, LLC (puresoluble.com)) was incubated under conditions strongly promoting polymerization of tubulin (1 M NaGlutamate, 0.1 M Mes (Morpholinoethanesulfonic acid), 1 mM MgCl2, 0.5 mM GTP, pH 6.9), in the absence or presence of 3.3 or 33 μM test compound, incubated for 30 min at 37 °C, then centrifuged at 100,000g for 8 min, and the top 3/4 of the supernatant removed. Protein concentration was measured, and polymerization was determined as pelletable protein lost from the supernatant.

M14 = experiment: Cell-growth inhibition (CellTiter); type: cell-based, human; conditions: Homo sapiens, M14, 72 h, read-out: Cell Growth Inhibition GI50 ± SE
Protocol: (§1) Inhibition of cell growth was determined by using standard procedures. Cell lines were obtained from the NCI anticancer drug screen and maintained in DMEM medium supplemented with 10% fetal bovine serum. Growing cells were exposed to serial dilutions of each compound for 3 days. Cell growth was determined with CellTiter Assay Reagent (Promega), and growth parameters, including inhibition of growth, were measured by using the methods specified by the manufacturer.

PC3 = experiment: Cell-growth inhibition (CellTiter); type: cell-based, human; conditions: Homo sapiens, PC-3, 72 h, read-out: Cell Growth Inhibition GI50 ± SE
Protocol: as §1

A549 = experiment: Cell-growth inhibition (CellTiter); type: cell-based, human; conditions: Homo sapiens, A549, 72 h, read-out: Cell Growth Inhibition GI50 ± SE
Protocol: as §1

[2] = target: colchicine site of bovine brain tubulin; type: binding; conditions: for Kd: tubulin binding constant, 25 °C, read-out: Kd
Protocol: Inhibition of this fluorescence increase was measured and converted to K d for the test compound as described.

[3] = Experimental rotational energy barrier (thermal racemization, chiral HPLC); type: physicochemical
Protocol: (aR)-6 and (aS)-6 were readily separable from one another and racemic iso -6 through the use of a polysaccharide-based chiral column (Diacel IA column) fitted to an automated medium-pressure liquid chromatography unit (Biotage Isolera Prime). Racemization was observable after heating a solution of either enantiopure (aR)- or (aS)-6 at 135 °C in xylenes over a few hours, and the rate of enantiomerization was extrapolated using the Eyring equation (ΔG ^‡ = 31.2 ± 0.3 kcal/mol). (aR)- and (aS )-iso-6 were separable in an analogous fashion using a chiral IC polysaccharide column. […] Thus, we can project that the rotational energy barrier is […] 37 kcal/mol. However, a computationally determined rotational barrier for iso -6 was 33.5 kcal/mol, which is roughly 3 kcal/mol more than that calculated for 6. One potential explanation for this notable difference in configurational stability is the greater double bond character of the methyl-bearing C^4–C^5 carbon of iso -6 in comparison to the C^5–C^6 in 6, as this would both shorten and rigidify this steric-bearing bond (see Scheme A/B for details). […] Studies have previously described differences in rotational barriers of DAAC (2) and its analogous isomer that, while less dramatic, are consistent with this trend (ΔG ^‡ = 22.1 vs 23.4 kcal/mol). […]
IV. Experimental Profiling of Dihedral Angles
Rotational Energy Barrier Determination. A small spatula tip (~0.2 mg) of either (aR)-6 (aka, (aR)-MT-MTC) or (aS)-6 (aka, (aS)-MT-MTC) was diluted in 2 mL o-xylenes in a large vial containing a stir bar. The solution was heated to 135 °C open to air (temperature set to 135 °C, but fluxuated between 134 and 138 °C).
~100 µL aliquots were extracted from solution using a syringe fitted with a long disposable needle at various time intervals and diluted into automated sample vials containing 500 µL CH2Cl2 to rapidly cool. These samples were monitored on Agilent with an analytical HPLC IA column, using 0 – 40% iPrOH in Hexanes gradient over 30 minutes at a flow rate of 0.5 mL/min, and a pressure of roughly 5 bar). Samples eluted approximately 20 minutes into run, with (aR)-6 eluting first, followed by (aS)-6. Three separate runs were carried out, two of which monitored racemization of (aS)-6, and one of which monitored racemization of (aR)- […]
Integration of the HPLC traces were used to determine enantiomeric excess by calculating the difference between the two enantiomers and dividing that by the sum of the two enantiomers, and then multiplying that […]
provided a slope (corresponding to kracemization), and dividing this number […] providing kenantiomerization (or kent in equation below), with units inverse seconds. A summary of data follows (Table S5), and representative chromatograms illustrated in section VI.

Row | Structure (SMILES) | Polymerization Inhibition (%) 3.3 μM (bovine brain tubulin) | Polymerization Inhibition (%) 33 μM (bovine brain tubulin) | Kd [2] | GI50 (M14; M14, 3 days) | GI50 (PC3; PC3, 3 days) | GI50 (A549; A549, 3 days) | further results
1 | COc1cc2c(c(OC)c1OC)-c1ccc(OC)c(=O)cc1CCC2 [compound 2, desacetamidocolchicine] | – | – | – | – | – | – | ΔG‡ exp, rotational barrier [1]: 22.1 kcal/mol; t1/2 rt of racemization ([1]; room temperature ref 19): ~ 0.5 h
2 | COc1ccc(-c2ccc(OC)c(=O)cc2)c(OC)c1OC [compound 3, 2-methoxy-5-(2,3,4-trimethoxyphenyl)-2,4,6-cycloheptatrien-1-one, reference compound] | 100% | 100% | 3200 nM | – | – | – | GI50 (M14): 30 ± 7 nM; GI50 (PC3): 30 ± 5 nM; GI50 (A549): 30 ± 1 nM
3 | COc1ccc(-c2ccc(OC)c(=O)cc2C)c(OC)c1OC [compound 4, 2-Methoxy-6-methyl-5-(2,3,4-trimethoxyphenyl)cyclohepta-2,4,6-trien-1-one] | 0% | 100% | 20000 nM | 250 ± 25 nM | 190 ± 60 nM | 300 ± 10 nM | binding constant fold less potent than 3 [2]: 5–30 fold
4 | COc1cc(C)c(-c2ccc(OC)c(=O)cc2)c(OC)c1OC [compound 5, 2-Methoxy-5-(2,3,4-trimethoxy-6-methylphenyl)cyclohepta-2,4,6-trien-1-one] | 0% | 100% | 14000 nM | 300 ± 10 nM | 220 ± 40 nM | 300 ± 10 nM | binding constant fold less potent than 3 [2]: 5–30 fold
5 | COc1cc(C)c(-c2ccc(OC)c(=O)cc2C)c(OC)c1OC [compound 6, 2-Methoxy-6-methyl-5-(2,3,4-trimethoxy-6-methylphenyl)cyclohepta-2,4,6-trien-1-one] | – | – | – | – | – | – | ΔG‡ of enantiomerization, experimental ([3]; 135 °C in xylenes, Eyring equation): 31.2 ± 0.3 kcal/mol
6 | COc1ccc(-c2ccc(=O)c(OC)cc2C)c(OC)c1OC [iso-4] | 0% | 0% | 230000 nM | > 3000 nM | > 3000 nM | > 3000 nM | –
7 | COc1cc(C)c(-c2ccc(=O)c(OC)cc2C)c(OC)c1OC [iso-6, 2-Methoxy-4-methyl-5-(2,3,4-trimethoxy-6-methylphenyl)cyclohepta-2,4,6-trien-1-one] | – | – | – | – | – | – | racemization on heating ([3]; 145 °C for 10 h): no racemization was observed; projected rotational energy barrier ([3]; from absence of racemization at 145 °C, 10 h): 37 kcal/mol
